According to US10973861B2, “Compositions and methods” (priority 2013, dated 2021):

Test system: C. difficile
Assay: Mouse model of C. difficile infection, bacterial compositions given by oral gavage on day −1 (Example 1)
Format: in vivo, mice
Conditions: positive control, oral gavage on days −1 to 4

For CN[C@H](CC(C)C)C(=O)N[C@H]1C(=O)N[C@@H](CC(N)=O)C(=O)N[C@H]2C(=O)N[C@H]3C(=O)N[C@H](C(=O)N[C@H](C(=O)O)c4cc(O)cc(O)c4-c4cc3ccc4O)[C@H](O)c3ccc(c(Cl)c3)Oc3cc2cc(c3O[C@@H]2O[C@H](CO)[C@@H](O)[C@H](O)[C@H]2O[C@H]2C[C@](C)(N)[C@H](O)[C@H](C)O2)Oc2ccc(cc2Cl)[C@H]1O [Vancomycin], the “weight loss, clinical signs of disease, and C. difficile shedding (in words)” value was “protects against these outcomes”.
